One compound from patent US20130072863A1, “CARBON DIOXIDE GAS MIST PRESSURE BATH METHOD AND CARBON DIOXIDE GAS MIST PRESSURE BATH APPARATUS FOR PREVENTING, IMPROVING OR CURING MYOCARDIAL INFARCTION” (priority 2010, published 2013) can be followed below.

In test [1] the test system is myocardial infarction. Nature of the test: measuring the tissue pH over weeks of treatment. It counts as in vivo, wistar rats. On the procedure:
The composition to be sealed under pressure into the carbon dioxide gas mist pressure bath means was experimented in the four kinds of the control (C), non-treated myocardial infarction (NM), CO2 mist (M) and CO2 gas. The number practiced by each of the gases is 8, 9, 8 and 5 individuals. In each of treatments, the pH changes of the individuals are measured in the pre-treatment (Δ1 day), one week after the treatment (Δ1 wks), two week after the treatment (Δ2 wks), and three week after the treatment (Δ3 wks). To explain Table 5 concretely, the control (C) was experimented to 8 individuals, as to the values of pH of the respective individuals are measured 1 week (Δ1 wks) after the treatment, 2 weeks (Δ2 wks) after the treatment, and (Δ3 wks) after the treatment. As to the changing values of pH of the respective individuals, making the reference values of the values when having calculated the average values of pH of 8 individuals measured before the treatment (Δ1 day), Table 5 expresses this reference value as “0.000”. Similarly, also as to three kinds of gases of the non treated myocardial infarction (NM), CO2 mist and CO2 gas (CG), making the reference values of the values when having calculated the average values of the changing values in pH before the treatment (Δ1 day), Table 5 expresses this reference value as “0.000”. The average values of the changing values of pH in the respective individuals measured at 1 week (Δ1 wks) after the treatment, 2 weeks (Δ2 wks) after the treatment and (Δ3 wks) after the treatment are shown with the respective changing amounts from the respective reference values. […] The numbers of the individuals practiced with the gases are 8, 9, 8 and 5 pieces, respectively, providing that the average values of pH are shown as they are pre-treatment (day 1), 1 week (Δ1 wks) after the treatment, 2 weeks (Δ2 wks) after the treatment, and (Δ3 wks) after the treatment.

Test [2] concerns models of myocardial infarction. The experiment in a line: laser tissue blood oxygen monitor measurement in the tissue during pressure bath treatment with four kinds of gases. It counts as in vivo, male wistar rats. An excerpt: The compositions of gases sealed under pressure in the carbon dioxide gas mist pressure bath means were subjected to the experiments using the four kinds of air mist (AM), CO2 gas (CG), CO2 mist (CM) and 100% oxygen mist (OM). Each of gases was sealed under pressure in the carbon dioxide gas mist pressure bath means, and the treatments were practiced. The numbers of the individuals were 13, 14, 15 and 11 pieces, respectively. Each of the individuals was intubated into male wistar rats aged of 8 weeks under the pentobarbital anesthesia, subjected to the thoracotomy, and was ligated at the coronary left-front rami descendens for making models of myocardial infarction. As to the treatments to these individuals by the four kinds of gases, the laser tissue blood oxygen monitor carried out measures on the pre-treatment (pre), the respective conditions at 10 min, 20 min and 30 min after starting the treatments, and the volume of oxygenated blood (volume of oxyhemoglobin) in the tissue of the individuals under the conditions (post) after finishing the treatments, and the measured results are shown in Table 1. To concretely explain Table 1, the air mist (AM) was experimented on the 13 individuals, and the laser tissue blood oxygen monitor carried out measures on the pre-treatment (pre), the conditions at 10 min, 20 min and 30 min after the treatments and the volumes of oxyhemoglobin of the respective individuals under the conditions (post) after the treatments. Then, “reference values” were made from values when having calculated the average values of the volume of oxyhemoglobin of the 13 individuals measured with the blood flow meter before the treatments, and Table expresses this average values as “1.000”. […] With respect to the average values of the volume of oxyhemoglobin of the respective individuals at 20 min, 30 min after starting the treatments and at the case of post, the above mentioned reference value made the division calculation on the value when having calculated the reference value of the volumes of oxyhemoglobin of the respective individuals, and the values calculated by the division are shown as the average values. […] The measures at this time also performed in each of the treatments as the pre-treatment (pre), the respective conditions of passing 10 min, 20 min and 30 min after starting the treatments, under the conditions (post) after finishing the treatments. In the results of measuring the treatments of the respective gases, “reference values” were made from values when calculating the average values of the volume of deoxyhemoglobin, the average value was expressed with “1.000” in this Table. The above mentioned reference values made the division calculation on the values when calculating the average values of the amount of deoxyhemoglobin of the respective individuals measured by the laser tissue blood oxygen monitor in the pre-treatment (pre) in the respective individuals of the cases of passing 20 min, 30 min and the condition (post) after finishing the treatments, and the values calculated by the division are shown as the average values. […] The measures performed, also at this time, in each of the gas treatments of the pre-treatment (pre), the respective conditions of 10 min, 20 min, 30 min after starting the treatment, and under the conditions (post) after finishing the treatments. In the results of measuring the treatments of the respective gases, making “reference values” from values when having calculated the average values of the volume of total hemoglobin, the average value is expressed with “1.000” in this Table. […]

[3] abbreviates: 10 min, relative to pre = 1.000.
Where [4] appears, read: 20 min, relative to pre = 1.000.
[5] abbreviates: 30 min, relative to pre = 1.000.

Molecules are shown by their SMILES.

Regarding `O=C=O` [CG, carbon dioxide], the “tissue pH, average value” in test [1] (1 wks after the treatment) is 7.168; in test [1] (2 wks after the treatment), 7.340; in test [1] (3 wks after the treatment) it was 7.306; in test [1] (pre-treatment (day 1)), 7.254. The “change of tissue pH (ΔpH), average value” in test [1] (1 wks after the treatment, change from pre-treatment (1 day) = 0.000) is listed as “−.084”; in test [1] (2 wks, change from pre-treatment = 0.000) it was “.090”; in test [1] (3 wks, change from pre-treatment = 0.000) it was “.050”. The “StO2 (degree of oxygen saturation in blood in the tissue), average value” is 1.027 in test [2] (setting [3]); 1.061 in test [2] (setting [4]); 1.063 in test [2] (setting [5]); 1.065 in test [2] (post, relative to pre = 1.000). The “total Hb (volume of total hemoglobin in the tissue), average value” in test [2] (setting [3]) is 1.002; in test [2] (setting [4]) it was 1.010; in test [2] (setting [5]) it was “.995”; in test [2] (post, relative to pre = 1.000), “.981”. For the same compound, the “deoxyHb (volume of deoxyhemoglobin in the tissue), average value” in test [2] (10 min after starting treatment, relative to pre = 1.000) was “.974”; in test [2] (setting [4]), “.942”; in test [2] (setting [5]), “.930”; in test [2] (post, relative to pre = 1.000), “.915”. Moreover, the “oxyHb (volume of oxyhemoglobin in the tissue), average value” in test [2] (10 min after starting treatment, relative to pre-treatment average = 1.000) is listed as 1.030; in test [2] (20 min after starting treatment, relative to pre = 1.000) it was 1.074; in test [2] (post (after finishing treatment), relative to pre = 1.000), 1.051. In test [2] (over the course of treatment (FIG. 11)), the “amount of oxyhemoglobin, effect of the treatment in words” value is “though not significant, increase of the amount of oxyhemoglobin was recognized”. In addition, the “StO2, effect of the treatment in words” value in test [2] (over the course of treatment (FIG. 17)) was “increases until 20 minutes after the treatment starts”.
